Data on 11 compounds can be found in US4016159A, “Acylamino-cephem-carboxylic acids containing an amidino or guanidino group in the molecule” (Hoechst Aktiengesellschaft, priority 1973, dated 1977).

Converted amounts (≈) assume the structure as drawn.

Holding throughout (assay type): cell-based
The test system of one assay is Streptococcus pyogenes A. Briefly: Minimum inhibition concentration (MIC), Table 3. The conditions noted are these: Germ: Streptococcus pyogenes A; read-out: Minimum inhibition concentration MIC. The source says: Minimum inhibition concentration MIC in γ/ml
Germ: Streptococcus pyogenes A

The test system of assay [1] is Staphylococcus aureus SG 511. Kind of assay: Minimum inhibition concentration (MIC), Table 5. The conditions noted are these: Staphylococcus aureus, SG511, Germ: Staphylococcus aureus SG 511; read-out: Minimum inhibition concentration (MIC). The source says: (§1) Minimum inhibition concentration (MIC) in γ/ml
Germ: Staphylococcus aureus SG 511

For assay [2], the system named is Staphylococcus aureus 285. Briefly: Minimum inhibition concentration (MIC), Table 1. The conditions noted are these: Staphylococcus aureus, 285, Germ: Staphylococcus aureus 285; read-out: Minimum inhibition concentration (MIC).
From the text: as §1
Germ: Staphylococcus aureus 285

Another assay has as its system Streptococcus D. Kind of assay: Minimum inhibition concentration (MIC), Table 4. The conditions noted are these: Streptococcus, Germ: Streptococcus D; read-out: Minimum inhibition concentration (MIC).
From the text: as §1

On to `Cc1nnc(SCC2=C(C(=O)O)N3C(=O)C(NC(=O)COc4ccc(C5=NCCCN5)cc4)C3SC2)s1` (centres unmarked) [Example 34, 3-[(5-methyl-1,3,4-thiadizole-2-yl)-thiomethyl]-7-[4-(1,4,5,6-tetrahydropyromide-2-yl)-phenoxyacetamido]-Δ 3-cephem-4-carboxylic acid], for which the MIC in the assay with Streptococcus pyogenes A fell in the range of 8 to 15.6 ng/mL (≈ 0.0143 to 0.0278 µM); in assay [1] it was 0.0625 to 0.078 µg/mL (≈ 0.111 to 0.139 µM); in assay [2], 0.5 to 1.25 µg/mL (≈ 0.892 to 2.23 µM); in the assay with Streptococcus D, 0.196 to 6.25 µg/mL (≈ 0.35 to 11.1 µM).
As to `O=C(Cc1ccc(C2=NCCN2)cc1)NC1C(=O)N2C(C(=O)O)=C(CSc3nnc(-c4ccccc4)s3)CSC12` (centres unmarked) [Example 52, 3-[(5-phenyl-1,3,4-thiadiazole-2-yl)-thiomethyl]-7-[4-(imidazoline-2-yl)-phenylacetamido] -Δ 3-cephem-4-carboxylic acid], the MIC with Streptococcus pyogenes A lay within 0.391 to 7.8 ng/mL (≈ 0.00066 to 0.0132 µM); in assay [1], 0.0196 to 0.0391 µg/mL (≈ 0.0331 to 0.066 µM); in assay [2], 0.156 to 0.391 µg/mL (≈ 0.263 to 0.66 µM); in the assay on Streptococcus D, 0.196 to 6.25 µg/mL (≈ 0.331 to 10.5 µM).
Turning to `O=C(Cc1ccc(C2=NCCCN2)cc1)NC1C(=O)N2C(C(=O)O)=C(CSc3nnc(-c4ccccc4)s3)CSC12` (centres unmarked) [Example 80, 3-[(5-phenyl-1,3,4,-thiadiazole-2-yl)-thiomethyl]-7-[4-(1,4,5,6-tetrahydropyrimide-2-yl)-phenylacetamido]-Δ 3-cephem-4-carboxylic acid], the MIC in the assay on Streptococcus pyogenes A was in the range of 0.391 to 7.8 ng/mL (≈ 0.000644 to 0.0129 µM); in assay [1] it was 0.0625 to 0.078 µg/mL (≈ 0.103 to 0.129 µM); in assay [2] it was 0.156 to 0.391 µg/mL (≈ 0.257 to 0.644 µM); in the assay on Streptococcus D, 10 to 50 µg/mL (≈ 16.5 to 82.4 µM).
In the same order, the values of `O=C(Cc1ccc(C2=NCCCN2)cc1)NC1C(=O)N2C(C(=O)O)=C(CSc3nc4ccccc4o3)CSC12` (centres unmarked) [Example 109, 3-[(benzoxazole-2-yl)-thiomethyl]-7-[4-(1,4,5,6-tetrahydropyrimide-2-yl)-phenylacetamido]-Δ3-cephem-4-carboxylic acid] are 0.391 to 7.8 ng/mL (≈ 0.000694 to 0.0138 µM), 0.0625 to 0.078 µg/mL (≈ 0.111 to 0.138 µM), 0.156 to 0.391 µg/mL (≈ 0.277 to 0.694 µM) and 10 to 50 µg/mL (≈ 17.7 to 88.7 µM).
For `CCCCCCNC(=N)c1ccc(OCC(=O)NC2C(=O)N3C(C(=O)O)=C(CSc4nnc(C)s4)CSC23)cc1` (centres unmarked) [Example 33, 3-[(5-methyl-1,3,4-thiadiazole-2-yl)-thiomethyl]-7-[4-(N-n-hexylamidion)-phenoxyacetamido]-Δ 3-cephem-4-carboxylic acid], the MIC in the assay with Streptococcus pyogenes A lay within 0.391 to 7.8 ng/mL (≈ 0.000647 to 0.0129 µM); in assay [1], 0.0625 to 0.078 µg/mL (≈ 0.103 to 0.129 µM); in assay [2], 0.156 to 0.391 µg/mL (≈ 0.258 to 0.647 µM); in the assay with Streptococcus D, 0.196 to 6.25 µg/mL (≈ 0.324 to 10.3 µM).
The matching figures for `O=C(Cc1ccc(C2=NCCCN2)cc1)NC1C(=O)N2C(C(=O)O)=C(CSc3nc(-c4ccccc4)cs3)CSC12` (centres unmarked) [Example 14, 3-[(4-phenyl-thiazole-2-yl)-thiomethyl]-7-[4-(1,4,5,6-tetrahydropyrimide-2-yl)-phenylacetamido]-Δ 3-cephem-4-carboxylic acid]: 8 to 15.6 ng/mL (≈ 0.0132 to 0.0258 µM), 0.0625 to 0.078 µg/mL (≈ 0.103 to 0.129 µM), 0.5 to 1.25 µg/mL (≈ 0.825 to 2.06 µM) and 10 to 50 µg/mL (≈ 16.5 to 82.5 µM).
The matching figures for `N=C(N)c1ccc(CC(=O)NC2C(=O)N3C(C(=O)O)=C(CSc4nnc(-c5ccccc5)s4)CSC23)cc1` (centres unmarked) [Example 57, 3-[(5-phenyl-1,3,4-thiadiazole-2-yl)-thiomethyl]-7-(4-amidinophenylacetamido)-Δ3-cephem-4-carboxylic acid]: 0.391 to 7.8 ng/mL (≈ 0.00069 to 0.0138 µM), 0.0196 to 0.0391 µg/mL (≈ 0.0346 to 0.069 µM), 0.156 to 0.391 µg/mL (≈ 0.275 to 0.69 µM) and 10 to 50 µg/mL (≈ 17.6 to 88.2 µM).
In the same order, the values of `CCCCCCNC(=N)c1ccc(OCC(=O)NC2C(=O)N3C(C(=O)O)=C(CSc4nnc(C)o4)CSC23)cc1` (centres unmarked) [Example 32, 3-[(5-methyl-1,3,4-oxadiazole-2-yl)-thiomethyl]-7-[4-(N-n-hexylamidino)-phenoxyacetamido]-Δ 3-cephem-4-carboxylic acid] are 0.391 to 7.8 ng/mL (≈ 0.000664 to 0.0132 µM), 0.0625 to 0.078 µg/mL (≈ 0.106 to 0.132 µM), 0.156 to 0.391 µg/mL (≈ 0.265 to 0.664 µM) and 10 to 50 µg/mL (≈ 17 to 84.9 µM).
As for `N=C(N)c1ccc(OCC(=O)NC2C(=O)N3C(C(=O)O)=C(CSc4nnnn4-c4ccccc4)CSC23)cc1` (centres unmarked) [Example 31, 3-[(1-phenyl-1-H-tetrazole-5yl)-thiomethyl]-7-(4-amidinophenoxyacetamido)-Δ3-cephem-4-carboxylic acid], the MIC with Streptococcus pyogenes A lay in the range of 0.391 to 7.8 ng/mL (≈ 0.00069 to 0.0138 µM); in assay [1] it was 0.0196 to 0.0391 µg/mL (≈ 0.0346 to 0.069 µM); in assay [2] it was 0.156 to 0.391 µg/mL (≈ 0.275 to 0.69 µM); in the assay with Streptococcus D, 10 to 50 µg/mL (≈ 17.6 to 88.2 µM).
`CCc1nnc(SCC2=C(C(=O)O)N3C(=O)C(NC(=O)Cc4ccc(C(=N)N)cc4)C3SC2)s1` (centres unmarked) [Example 122, 3-[(5-ethyl-1,3,4-thiadiazole-2-yl)-thiomethyl]-7-(4-amidino-phenylacetamido)-Δ3-cephem-4-carboxylic acid]: the MIC in the assay on Streptococcus pyogenes A fell in the range of 8 to 15.6 ng/mL (≈ 0.0154 to 0.0301 µM); in assay [1] it was 0.0625 to 0.078 µg/mL (≈ 0.121 to 0.15 µM); in assay [2], 0.5 to 1.25 µg/mL (≈ 0.964 to 2.41 µM); in the assay with Streptococcus D, 10 to 50 µg/mL (≈ 19.3 to 96.4 µM).
In the same order, the values of `CC(C)c1csc(SCC2=C(C(=O)O)N3C(=O)C(NC(=O)Cc4ccc(C5=NCCN5)cc4)C3SC2)n1` (centres unmarked) [Example 112, 3-[(4-isopropyl-thiazole-2-yl)-thiomethyl]-7-[4-(imidazoline-2-yl)-phenylacetamido]-Δ3-cephem-4-carboxylic acid] are 0.391 to 7.8 ng/mL (≈ 0.000701 to 0.014 µM), 0.0625 to 0.078 µg/mL (≈ 0.112 to 0.14 µM), 0.156 to 0.391 µg/mL (≈ 0.28 to 0.701 µM) and 0.196 to 6.25 µg/mL (≈ 0.351 to 11.2 µM).
